These results are taken from ChEMBL document CHEMBL1153123, “Antiplasmodial activity of piperazine sulfonamides” (Bioorg Med Chem Lett, 2010).

Assay [1] concerns Plasmodium falciparum. The assay can be described thus: Antiplasmodial activity against Plasmodium falciparum 3D7 in human O+ erythrocytes after 72 hrs by DAPI staining. The settings on record: 3D7, 72 h. The format is functional, organism-based.
Assay [2] concerns Plasmodium falciparum. The assay can be described thus: Antiplasmodial activity against Plasmodium falciparum Dd2 in human O+ erythrocytes after 72 hrs by DAPI staining. The assay is classed as functional, organism-based. The settings on record: Dd2, 72 h.

The EC50 is the midpoint of the concentration-response curve.

Turning to `O=S(=O)(c1ccc(Cl)cc1)N1CCN(C(=S)NCc2ccco2)CC1`, the EC50 with Plasmodium falciparum [1] is 615 nM; in the assay with Plasmodium falciparum [2], 544 nM.
The corresponding values for `CCOc1ccc(S(=O)(=O)N2CCN(C(=S)NCc3ccccc3)CC2)cc1` are 1230 nM and 1960 nM.
As for `C/N=C(/SCc1ccccc1)N1CCN(S(=O)(=O)c2ccc([N+](=O)[O-])cc2)CC1`, the EC50 in the assay on Plasmodium falciparum [1] turned out to be 11400 nM; with Plasmodium falciparum [2] it was 13000 nM.
`O=S(=O)(c1cccc(F)c1)N1CCN(C(=S)NCc2ccccc2)CC1`: the EC50 with Plasmodium falciparum [1] came out at 1470 nM; with Plasmodium falciparum [2], 1970 nM.
Consider `O=[N+]([O-])c1ccc(S(=O)(=O)N2CCC(C(=S)NCc3ccccc3)CC2)cc1`, for which the values for the EC50 with Plasmodium falciparum [1] and in the assay with Plasmodium falciparum [2] were 6060 nM and 6190 nM, respectively.
The corresponding values for `O=S(=O)(c1ccc(F)cc1)N1CCN(C(=S)NCc2ccccc2)CC1` are 447 nM and 492 nM.
For `O=C(CCc1ccccc1)N1CCN(S(=O)(=O)c2ccc([N+](=O)[O-])cc2)CC1`, the EC50 was found to be 13500 nM with Plasmodium falciparum [1] and 13600 nM in the assay with Plasmodium falciparum [2].
The corresponding values for `CS(=O)(=O)N1CCN(C(=S)NCc2ccco2)CC1` are over 10000 nM and over 10000 nM.
Turning to `O=S(=O)(c1ccc(F)c(F)c1F)N1CCN(C(=S)NCc2ccccc2)CC1`, the EC50 in the assay on Plasmodium falciparum [1] is 1520 nM; in the assay on Plasmodium falciparum [2] it was 1610 nM.
`O=S(=O)(c1ccc2c(c1)OCCO2)N1CCN(C(=S)NCc2ccccc2)CC1`: the half-maximal effective concentration (EC50) is 6490 nM in the assay on Plasmodium falciparum [1] and over 10000 nM in the assay on Plasmodium falciparum [2].
The corresponding values for `Cc1cc(Nc2ccccc2)nc(N2CCN(S(=O)(=O)c3ccc([N+](=O)[O-])cc3)CC2)n1` are 11100 nM and 10000 nM.
As for `O=S(=O)(c1ccc(Cl)cc1)N1CCN(C(=S)NCC2CCCO2)CC1` (stereo not drawn), the EC50 with Plasmodium falciparum [1] was found to be 667 nM; with Plasmodium falciparum [2] it was 860 nM.
The corresponding values for `O=C(NCc1ccco1)N1CCN(S(=O)(=O)c2ccc([N+](=O)[O-])cc2)CC1` are 6410 nM and 4480 nM.
With `O=[N+]([O-])c1ccc(S(=O)(=O)N2CCN(C(=S)NCc3ccccc3)CC2)cc1`, the 50% effective concentration (EC50) was determined as 56 nM in the assay on Plasmodium falciparum [1] and 103 nM with Plasmodium falciparum [2].
`O=[N+]([O-])c1ccc(S(=O)(=O)N2CCN(Cc3ccccc3)CC2)cc1` displayed a 50% effective concentration (EC50) in the assay with Plasmodium falciparum [2] of over 10000 nM.
For `O=[N+]([O-])c1ccc(S(=O)(=O)N2CCN(C(=S)CCc3ccccc3)CC2)cc1`, the EC50 in the assay on Plasmodium falciparum [1] worked out at 1250 nM; with Plasmodium falciparum [2], 1690 nM.
In the assay on Plasmodium falciparum [2], `O=[N+]([O-])c1ccc(S(=O)(=O)N2CCN(C/C=C/c3ccccc3)CC2)cc1` gave an EC50 of 6050 nM.
For `O=C(NCc1ccccc1)C1CCN(S(=O)(=O)c2ccc([N+](=O)[O-])cc2)CC1`, the EC50 with Plasmodium falciparum [1] was found to be 5950 nM; with Plasmodium falciparum [2], 3740 nM.
On to `O=C(NCc1ccco1)N1CCN(S(=O)(=O)c2ccc(Cl)cc2)CC1`, for which the EC50 in the assay with Plasmodium falciparum [1] is 2550 nM; in the assay with Plasmodium falciparum [2], 2300 nM.
With `Cc1cc(NCc2ccccc2)nc(N2CCN(S(=O)(=O)c3ccc([N+](=O)[O-])cc3)CC2)n1`, the figures for the EC50 in the assay with Plasmodium falciparum [1] and with Plasmodium falciparum [2] were 3970 nM and 5810 nM, respectively.
With `O=[N+]([O-])c1ccc(S(=O)(=O)N2CCN(C(=S)NCCc3ccccc3)CC2)cc1`, in the assay on Plasmodium falciparum [2], a half-maximal response (EC50) required 211 nM.
On to `O=[N+]([O-])c1ccc(S(=O)(=O)N2CCN(C(=S)NCc3ccco3)CC2)cc1`, for which the EC50 with Plasmodium falciparum [1] was 64 nM; in the assay on Plasmodium falciparum [2] it was 117 nM.
For the compound `O=S(=O)(c1c(Cl)cc(Br)cc1Cl)N1CCN(C(=S)NCc2ccccc2)CC1`, the EC50 in the assay on Plasmodium falciparum [1] is 2670 nM; in the assay with Plasmodium falciparum [2] it was 4410 nM.
Take `O=S(=O)(c1ccc(Cl)cc1)N1CCN(C(=S)NCc2ccc(Cl)cc2)CC1`: in the assay with Plasmodium falciparum [2], a half-maximal response (EC50) required 400 nM.
As to `O=S(=O)(c1ccccc1F)N1CCN(C(=S)NCc2ccccc2)CC1`, the values for the EC50 with Plasmodium falciparum [1] and with Plasmodium falciparum [2] were 2410 nM and 3130 nM, respectively.
On to `O=[N+]([O-])c1ccc(S(=O)(=O)N2CCN(C(=S)NCC3CCCO3)CC2)cc1` (stereo not drawn), for which the values for the EC50 with Plasmodium falciparum [1] and in the assay on Plasmodium falciparum [2] were 313 nM and 337 nM, respectively.
For the compound `O=S(=O)(c1ccc(Br)cc1Cl)N1CCN(C(=S)NCc2ccccc2)CC1`, the EC50 in the assay on Plasmodium falciparum [1] was 830 nM; in the assay with Plasmodium falciparum [2] it was 873 nM.
For the compound `CCNC(=S)N1CCN(S(=O)(=O)c2ccccc2C(F)(F)F)CC1`, the half-maximal effective concentration (EC50) in the assay on Plasmodium falciparum [1] and in the assay with Plasmodium falciparum [2] was over 10000 nM in each case.
Consider `O=S(=O)(c1ccccc1)N1CCN(C(=S)NCc2ccccc2)CC1`, for which the results for the concentration for a half-maximal effect (EC50) in the assay with Plasmodium falciparum [1] and in the assay with Plasmodium falciparum [2] were 1860 nM and 1920 nM, respectively.
With `COCCNC(=S)N1CCN(S(=O)(=O)c2ccc([N+](=O)[O-])cc2)CC1`, the figures for the concentration giving a half-maximal response (EC50) in the assay on Plasmodium falciparum [1] and in the assay with Plasmodium falciparum [2] were 310 nM and 354 nM, respectively.
Take `N=C(NCc1ccccc1)N1CCN(S(=O)(=O)c2ccc([N+](=O)[O-])cc2)CC1`: the EC50 with Plasmodium falciparum [1] and in the assay with Plasmodium falciparum [2] was over 25000 nM each time.
